According to patent US20250018019A1, “TREATMENT OF INTERFERON DRIVEN INFLAMMATION” (The Provost, Fellows, Foundation Scholars and the other …, priority 2023, published 2025):
Where a name gives a salt, the structure may show the parent alone.

What was measured:
[1] = tested on: human PBMCs; assay: RT-qPCR gene expression in human PBMCs; format: cell-based; conditions: LPS-stimulated human PBMCs, LPS 4 h
Experimental: Human blood samples from healthy donors were collected and processed at the School of Biochemistry and Immunology in TBSI (TCD). Blood samples were obtained anonymously and written informed consent for the use of blood for research purposes has been obtained from the donors. All the procedures involving experiments on human samples have been approved by the School of Biochemistry and Immunology Research Ethics Committee (TCD). Experiments were conducted according to the TCD guide on good research practice, which follows the guidelines detailed in the National Institutes of Health Belmont Report (1978) and the Declaration of Helsinki. […] The remaining pellet of mononuclear cells was resuspended, counted, and plated at 1×10^6 cells/ml in RPMI supplemented with FCS (10%) and penicillin/streptomycin (1%). […]
RNA extraction from cells was carried out using a Purelink™ RNA kit (Invitrogen) according to the manufacturer's instructions. […] Isolated RNA was quantified using a NanoDrop 2000 spectrophotometer, and RNA concentration was normalised to the lowest concentration across all samples with RNAse-free water. If necessary, samples were DNAse-treated after quantification using DNAse I (Thermo Fisher) according to the manufacturer's instructions. […]

[2] = tested on: human macrophages; assay: RT-qPCR gene expression in human macrophages; format: cell-based; conditions: LPS-stimulated human macrophages, LPS 4 h
Experimental: PBMCs were taken, and CD14+ monocytes were isolated using MagniSort Human CD14 Positive Selection Kit (Thermo Fisher) according to the manufacturer's protocol. CD14 Monocytes were then differentiated in T-175 flasks in RPMI containing FCS (10%), penicillin/streptomycin (1%) and recombinant human M-CSF (1:1000). After 6 days, the supernatant was discarded, cells were scraped and counted, and human monocyte-derived macrophages (hMDMs) were plated in 12-well plates at 1×10^6 cells/mL RPMI containing FCS (10%) and penicillin/streptomycin (1%).
All compounds used DMSO as a vehicle except for 4-hydroxy tamoxifen (EtOH), NAC (PBS), and AOAA for tracing experiments (Media). […]
RNA extraction from cells was carried out using a Purelink™ RNA kit (Invitrogen) according to the manufacturer's instructions. […] Isolated RNA was quantified using a NanoDrop 2000 spectrophotometer, and RNA concentration was normalised to the lowest concentration across all samples with RNAse-free water. If necessary, samples were DNAse-treated after quantification using DNAse I (Thermo Fisher) according to the manufacturer's instructions. […] Real-time quantitative PCR was performed on the cDNA generated in the previous step, using primers designed in-house and ordered from Eurofins Genomics, as detailed in Table S2. […] Relative expression (2^−ΔΔCT) was calculated from the CT values for each sample and gene of interest.

CCOC(=O)[C@@]12CCCC=C1N(Cc1ccc(-c3ccccc3)cc1)C(=O)[C@H]2CC(=O)NC [FHIN1, Fumarate hydratase-IN-1]
IL10 expression [1]: suppressed
Tnfa expression [1]: increased
IL10 expression [2]: suppressed
Tnfa expression [2]: increased
